Like-named read-outs stand apart in the source and are kept apart here. Marks after values point to notes of the source that are not given here. Blank lines part the entries; values can stand above or below the compound they belong to.
Legend:
[1] = tested on: T. muris; assay: In vitro drug uptake and elimination by T. muris; type: in vitro ADME, Trichuris muris; conditions: for MBZ in worms / OxP in worms: 24 h
[2] = type: in vivo, C57BL/10 mice
[3] = tested on: T. muris; assay: Drug uptake by T. muris in vivo; set-up: species or system Trichuris muris in C57BL/10 mice; conditions: for drug quantity in worms, maximum: in vivo
[4] = tested on: adult H. polygyrus; conditions: 100 μM, 72 h; ref Unpublished data; cited from earlier work
[5] = tested on: H. polygyrus; conditions: oral 100 mg/kg; ref Unpublished data; cited from earlier work
[6] = tested on: adult T. muris; conditions: 72 h, ref Keiser et al., cited from earlier work
[7] = tested on: T. muris; conditions: ref Keiser et al., 2013, cited from earlier work
[8] = tested on: trichuriasis; conditions: ref Keiser and Utzinger, 2008; cited from earlier work
[9] = oral 100 mg/kg, rats; ref Cowan et al., 2016; cited from earlier work

MBZ in worms ([1]; incubation at 5 μM): 482 ± 388 nmol/10 worms | MBZ in worms ([1]; incubation at 10 μM): 626 ± 463 nmol/10 worms | MBZ in worms ([1]; incubation at 25 μM): 672 ± 251 nmol/10 worms | MBZ in worms ([1]; incubation at 50 μM): 826 ± 390 nmol/10 worms | MBZ in worms ([1]; incubation at 75 μM): 910 ± 362 nmol/10 worms | MBZ in worms ([1]; incubation at 100 μM): 861 ± 503 nmol/10 worms | concentration at 2 h ([2]; C57BL/10, mouse, plasma, intraperitoneal, 100 mg/kg): 3.6 µM | mebendazole in the mucosa of the large intestine ([2]; intraperitoneal 100 mg/kg, 2 h): 1 µmol/g | mebendazole in the mucosa of the small intestine ([2]; intraperitoneal 100 mg/kg, 2 h): 4 µmol/g | administered drug in the large intestine ([2]; oral 100 mg/kg, 2 h): 18 µmol/g | administered drug in the mucosa of the large intestine ([2]; oral 100 mg/kg, 2 h): 3 µmol/g | administered drug in the mucosa of the small intestine ([2]; oral 100 mg/kg, 2 h): 8 µmol/g | administered drug in the small intestine ([2]; oral 100 mg/kg, 2 h): 222 µmol/g | administered drug in the stomach ([2]; oral 100 mg/kg, 2 h): 215 µmol/g | administered drug in the large intestine ([2]; oral 100 mg/kg, 5 h): 100 µmol/g | administered drug in the mucosa of the large intestine ([2]; oral 100 mg/kg, 5 h): 5 µmol/g | administered drug in the mucosa of the small intestine ([2]; oral 100 mg/kg, 5 h): 6 µmol/g | administered drug in the large intestine ([2]; oral 100 mg/kg, 8 h): 40 µmol/g | administered drug in the mucosa of the large intestine ([2]; oral 100 mg/kg, 8 h): 2 µmol/g | administered drug in the mucosa of the small intestine ([2]; oral 100 mg/kg, third value, time not given): 4 µmol/g | drug quantity in worms, maximum [3]: ≤ 21 nmol per ten T. muris | mebendazole in worms ([3]; intraperitoneal 100 mg/kg, 2 h): 5 nmol/10 worms | mebendazole in worms ([3]; oral 100 mg/kg, unchanged over time, close to LLOQ): 20 nmol/10 worms
SMILES: COC(=O)Nc1nc2ccc(C(=O)c3ccccc3)cc2[nH]1 [Mebendazole, mebendazole]
Drug effect [4]: 0% [100 μM] ^a | Worm burden reduction [5]: 59% [100 mg/kg] ^a | Drug effect ([6]; incubation at >600 μM, 2012): <50% ^b | Worm burden reduction ([7]; oral 150 mg/kg): 68% [150 mg/kg] ^c | cure rate [8]: below 36%

SMILES: CN1CCCN=C1/C=C/c1cccc(O)c1 [Oxantel pamoate, oxantel pamoate]
EC50 ([6]; serial dilution, 2013): 4 µM

time after which uptake ceased ([1]; exposure at 25 μM): 8 h | OxP in worms ([1]; incubation at 5 μM): 13 ± 9 nmol/10 worms | OxP in worms ([1]; incubation at 10 μM): 27 ± 9 nmol/10 worms | OxP in worms ([1]; incubation at 25 μM): 65 ± 5 nmol/10 worms | OxP in worms ([1]; incubation at 50 μM): 155 ± 41 nmol/10 worms | OxP in worms ([1]; incubation at 75 μM): 169 ± 24 nmol/10 worms | OxP in worms ([1]; incubation at 100 μM): 197 ± 46 nmol/10 worms | oxantel pamoate in the large intestine ([2]; intraperitoneal 50 mg/kg, 2 h): 7 µmol/g | oxantel pamoate in the mucosal tissue of the large intestine ([2]; intraperitoneal 50 mg/kg, 2 h): 17 µmol/g | oxantel pamoate in the mucosal tissue of the small intestine ([2]; intraperitoneal 50 mg/kg, 2 h): 2 µmol/g | oxantel pamoate in the small intestine ([2]; intraperitoneal 50 mg/kg, 2 h): 7 µmol/g | oxantel pamoate in the stomach ([2]; intraperitoneal 50 mg/kg, 2 h): 5 µmol/g | oxantel pamoate plasma level ([2]; intraperitoneal 50 mg/kg, 2 h, below the LLOQ): 0.21 µM | plasma concentration of the administered drug ([2]; oral 100 mg/kg, 2-8 h (all times)): < 0.7 µM | administered drug in the small intestinal mucosa ([2]; oral 100 mg/kg, 5 and 8 h): 2 µmol/g | administered drug in the large intestine ([2]; oral 100 mg/kg, 2 h): 6 µmol/g | administered drug in the mucosa of the small intestine ([2]; oral 100 mg/kg, 2 h): 31 µmol/g | administered drug in the small intestine ([2]; oral 100 mg/kg, 2 h): 1951 µmol/g | administered drug in the stomach ([2]; oral 100 mg/kg, 2 h): 5278 µmol/g | administered drug in the large intestine ([2]; oral 100 mg/kg, 5 h): 359 µmol/g | administered drug in the small intestine ([2]; oral 100 mg/kg, 5 h): 54 µmol/g | administered drug in the stomach ([2]; oral 100 mg/kg, 5 h): 302 µmol/g | administered drug in the large intestine ([2]; oral 100 mg/kg, 8 h): 110 µmol/g | administered drug in the small intestine ([2]; oral 100 mg/kg, 8 h): 61 µmol/g | administered drug in the stomach ([2]; oral 100 mg/kg, 8 h): 364 µmol/g | drug quantity in worms, maximum [3]: ≤ 34 nmol per ten T. muris | oxantel pamoate in worms ([3]; intraperitoneal 50 mg/kg, 2 h): no compound could be quantified | oxantel pamoate in worms ([3]; oral 100 mg/kg, 5 h): 34 nmol/10 worms | oxantel pamoate in worms ([3]; oral 100 mg/kg, 8 h): 22 nmol/10 worms
SMILES: CN1CCCN=C1/C=C/c1cccc(O)c1.O=C(O)c1cc2ccccc2c(Cc2c(O)c(C(=O)O)cc3ccccc23)c1O [Oxantel pamoate, oxantel pamoate]
Worm burden reduction ([7]; oral 10 mg/kg): 93% [10 mg/kg] ^c | oxantel pamoate in plasma [9]: could not quantify

— publication PMC5377441 (International Journal for Parasitology: Drugs and Drug …, 2017)
